“Also recorded” adds a separate entry of the source. Values belong to the molecule of their own block, whether it stands above or below them.
Legend:
[1] = test system: HEK293 cell line cotransfected with the hTLR7 gene; test: Cytotoxicity, MTS cell proliferation assay; format: cell-based, human; conditions: 24 h
Protocol: The cytotoxicity of the compounds was determined by the MTS assay at concentrations of 150, 50, and 10 μM on the HEK293 cell line cotransfected with the hTLR7 gene (Figure 3).
The cytotoxicity of the compounds was determined using the MTS cell proliferation assay (CellTiter 96 AQueous One Solution Cell Proliferation Assay, Promega, Wisconsin, USA), according to the manufacturer's protocol on the HEK293 cell line, cotransfected with the hTLR7 gene (InVivoGen). Cells were seeded in 96-well plates (1.5 × 10^4 cells/well). After 24 h incubation at 5% CO2 and 37 °C, the cells were treated either with DMSO (negative control) or with solutions of the tested compounds in DMSO. After 24 h, MTS reagent (CellTiter 96 AQueous One Solution Cell Proliferation Assay, Promega, Wisconsin, USA) was added. Cells were incubated for another 2 h, and then absorbance was measured at 490 nm.

[2] = test system: human peripheral blood mononuclear cells (PBMCs); test: Cytokine secretion in PBMCs, cytometric bead array; format: cell-based; conditions: 24 h; for IL-6 concentration / IL-8 secretion / IL-10 concentration / IL-12p70 secretion / TNF-α secretion / IL-1β secretion: 21a 62.5 and 12.5 μM, 24a 125 and 25 μM
Protocol: PBMCs were seeded on a 24-well plate and treated with compounds 21a (62.5 μM (21a (1)) and 12.5 μM (21a (2))) and 24a (125 μM (24a (1)) and 25 μM (24a (2))). For a positive control (PC), imiquimod (1) was used (final concentration is 10 μg/mL) and the negative control were cells treated with DMSO. […] The BD Human Cytometric Bead Array (BD Biosciences, California, USA) was used to assay the protein levels of IL-1β, IL-6, IL-8, IL-10, IL-12p70, and TNF-α in the cell culture supernatant, according to the manufacturer’s protocol (BD Biosciences). PBMCs were isolated from buffy coats obtained at the Blood Transfusion Centre of Slovenia. Cells were seeded into 24-well plates (5 × 10^5 cells/well in […] of RPMI medium, Sigma-Aldrich, St. Louis, Missouri, USA) and treated with the selected TLR7 agonist. For a PC, imiquimod was used (final concentration is 10 μg/mL) and the negative control were cells treated with DMSO. Cells were centrifuged after 24 h incubation at 5% CO2 and 37 °C, and cell culture supernatants were used for further analysis. In an assay tube, […] of the Capture Beads, […] of the Detection Reagent, and […] of sample (fivefold dilution) were mixed and incubated for 3 h at room temperature and protected from light. Samples were then washed with 1 mL of wash buffer and centrifuged at 200g for 5 min. The supernatant was carefully aspirated and discarded from each assay tube. The bead pellet was resuspended by adding […] of wash buffer. Flow cytometry was performed using a FACSCalibur system (Becton Dickinson, Inc., New Jersey, USA). A standard curve was prepared by serial dilutions of standards and used for determination of cytokine concentrations in supernatants.

hTLR7 = biological target: T1, hTLR7 (Homo sapiens, UniProt Q9NYK1); test: TLR7 agonist activity, HEK293 hTLR7 SEAP reporter assay; format: cell-based; conditions: HEK293 cotransfected with hTLR7 and inducible SEAP reporter gene, 24 h treatment; average ± SD of three independent replicates; n.a. = not active; read-out: EC50
T1 construct: host or cells: HEK293
T1 sequence (Q9NYK1 27-1049): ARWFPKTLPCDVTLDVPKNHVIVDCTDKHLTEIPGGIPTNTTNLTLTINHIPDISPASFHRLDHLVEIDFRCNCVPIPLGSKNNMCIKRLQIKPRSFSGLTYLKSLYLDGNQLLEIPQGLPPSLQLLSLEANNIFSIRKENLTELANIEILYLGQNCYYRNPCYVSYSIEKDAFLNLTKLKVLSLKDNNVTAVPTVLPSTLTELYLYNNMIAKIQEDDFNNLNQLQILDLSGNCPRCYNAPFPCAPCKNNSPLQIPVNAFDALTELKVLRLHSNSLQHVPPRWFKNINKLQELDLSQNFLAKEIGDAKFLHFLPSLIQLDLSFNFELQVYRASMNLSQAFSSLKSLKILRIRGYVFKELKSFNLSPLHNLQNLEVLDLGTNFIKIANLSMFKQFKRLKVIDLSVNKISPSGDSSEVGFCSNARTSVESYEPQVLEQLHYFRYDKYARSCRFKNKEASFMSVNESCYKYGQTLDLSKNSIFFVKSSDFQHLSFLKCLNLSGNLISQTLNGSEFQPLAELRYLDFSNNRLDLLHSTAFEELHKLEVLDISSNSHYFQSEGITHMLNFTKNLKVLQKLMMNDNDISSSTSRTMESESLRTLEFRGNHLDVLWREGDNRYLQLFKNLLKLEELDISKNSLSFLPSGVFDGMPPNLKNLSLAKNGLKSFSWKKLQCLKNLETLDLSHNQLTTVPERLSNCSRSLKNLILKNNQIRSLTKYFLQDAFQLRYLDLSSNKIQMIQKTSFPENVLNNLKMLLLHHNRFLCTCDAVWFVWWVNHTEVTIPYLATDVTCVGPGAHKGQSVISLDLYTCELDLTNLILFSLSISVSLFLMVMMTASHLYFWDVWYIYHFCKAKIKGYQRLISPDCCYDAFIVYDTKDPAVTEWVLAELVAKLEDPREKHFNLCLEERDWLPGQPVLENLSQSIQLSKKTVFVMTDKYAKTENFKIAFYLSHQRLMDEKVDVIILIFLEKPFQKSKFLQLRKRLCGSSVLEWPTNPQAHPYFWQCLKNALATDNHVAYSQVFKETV
Protocol: TLR7 agonist activities were determined using the HEK293 cell line, which was cotransfected with the hTLR7 gene and an inducible SEAP reporter gene (InvivoGen, San Diego, California, USA) as described previously.[34] Briefly, cells were seeded in 96-well plates (3 × 10^4 cells/well) and incubated at 5% CO2 and 37 °C. After 24 h, the cells were treated with the solutions of the compounds in DMSO. Imiquimod was used as a PC. The cells were incubated again for 24 h under the same conditions. The activity of SEAP in the supernatant of the cells was measured using the QUANTI-Blue reagent (InvivoGen, San Diego, California, USA), according to the manufacturer's protocol. EC50 values were determined using GraphPad Prism 9.2.0. software (San Diego, California, USA) using the nonlinear regression curve fit and four-parameter logistic equation. All experiments were performed in three independent biological replicates. Values are given as averages from the independent measurements with standard deviations calculated.

EC50 (hTLR7): 7.8 ± 0.1 µM
SMILES: CC1CCCN(c2nc(C(F)(F)F)nc3onc(-c4ccc(F)cc4)c23)C1 (stereo not drawn) [Compound 21a, 3-(4-Fluorophenyl)-4-(3-methylpiperidin-1-yl)-6-(trifluoromethyl)isoxazolo[5,4-d]pyrimidine]
cytotoxicity (cell viability) ([1]; 150, 50 and 10 μM): noncytotoxic; also recorded: no cytotoxic effects
IL-6 concentration [2]: did not increase significantly
IL-8 secretion [2]: induced the secretion
IL-10 concentration [2]: did not increase significantly
IL-12p70 secretion [2]: induced the secretion
TNF-α secretion [2]: induced the secretion
IL-1β secretion ([2]; imiquimod 10 μg/mL): induced the secretion
induction of TNF-α secretion in comparison to 1 (imiquimod) ([2]; 21a at 62.5 μM, imiquimod 10 μg/mL): higher induction

SMILES: Cl.Fc1ccc(-c2noc3nc(C(F)(F)F)nc(N4CCNCC4)c23)cc1 [Compound 21i, 4-(3-(4-Fluorophenyl)-6-(trifluoromethyl)isoxazolo[5,4-d]pyrimidin-4-yl)piperazin-1-ium chloride]
cytotoxicity (cell viability) ([1]; 150 μM): highly cytotoxic
cytotoxicity (cell viability) ([1]; 150, 50 and 10 μM): cytotoxic

EC50 (hTLR7): 25.3 ± 3.5 µM
SMILES: CC1CCCN(c2nc(C(F)(F)F)nc3onc(C4CC4)c23)C1 (stereo not drawn) [Compound 24a, 3-Cyclopropyl-4-(3-methylpiperidin-1-yl)-6-(trifluoromethyl)isoxazolo[5,4-d]pyrimidine]
IL-6 concentration [2]: did not increase significantly
IL-8 secretion [2]: induced the secretion
IL-10 concentration [2]: did not increase significantly
IL-12p70 secretion [2]: induced the secretion
TNF-α secretion [2]: induced the secretion
IL-1β secretion ([2]; imiquimod 10 μg/mL): induced the secretion

SMILES: CC1CCCN(c2nc(C(F)(F)F)nc3onc(C4CCNCC4)c23)C1.Cl (stereo not drawn) [Compound 25a, 4-(4-(3-Methylpiperidin-1-yl)-6-(trifluoromethyl)isoxazolo[5,4-d]pyrimidin-3-yl)piperidin-1-ium chloride]
cytotoxicity (cell viability) ([1]; 150 μM): highly cytotoxic

SMILES: CC(C)CNc1nc(C(F)(F)F)nc2onc(C3CCNCC3)c12.Cl [Compound 25b, 4-(4-(Isobutylamino)-6-(trifluoromethyl)isoxazolo[5,4-d]pyrimidin-3-yl)piperidin-1-ium chloride]
cytotoxicity (cell viability) ([1]; 150 μM): highly cytotoxic

SMILES: CC(C)Cn1cnc2c(N)nc3ccccc3c21 [imiquimod, reference compound]
IL-1β secretion ([2]; imiquimod 10 μg/mL): stimulated the release

Source: publication PMC10795023, “Structural Optimization and Biological Evaluation of Isoxazolo[5,4-d]pyrimidines as Selective Toll-Like Receptor 7 Agonists” (ACS Omega, 2024)
